Read-outs that look alike come from different tables or passages of the source.
Legend:
[1] = phase 3 trials, MDMA-assisted psychotherapy; cited from earlier work
[2] = autistic adults, MDMA-assisted psychotherapy; cited from earlier work
[3] = human urine, after racemic MDMA; cited from earlier work
[4] = rats, cited from earlier work; for Cmax (maximum MDMA concentration): 2 mg/kg; for Cmax: 10 mg/kg
[5] = test system: BTBR mice; experiment: Sociability test, BTBR; assay type: in vivo; settings: 3.0 mg/kg IP
Procedure: This assay was conducted in adult male C57 and BTBR mice (n=6 per group) in a dedicated conditioning room where ambient light, sound, and human contact were tightly controlled. Social preference chambers consist of two polycarbonate boxes (13.5 cm wide×22.5 cm tall×31.0 cm deep), floored with rough-textured black ABS plastic, and connected to one another by a 1.25″ PVC T-junction. An infrared photobeam emitter/detector array is mounted at each intersection of the T-junction and each preference compartment, and as a mouse traversed the apparatus, it would break the photobeam upon entry to or exit from each preference compartment. Beam breaks started or stopped a counter on an interfaced computer, allowing automated collection of time spent in each compartment. At the end of each test, data were reported as time (in seconds) spent in each compartment, the number of entries into each compartment, and the average time spent in each compartment following an entry. Social preference tests were conducted in an iterative manner, with each test subject completing four distinct phases as described below. Between testing sessions, chambers were sanitized by wiping the insides with a disinfectant product provided by the UAMS Department of Laboratory Animal Medicine. […]

CNC(C)Cc1ccc2c(c1)OCO2 (racemic) [racemic MDMA, 1-(1,3-benzodioxol-5-yl)-N-methylpropan-2-amine]
efficacy to treat Post Traumatic Stress Disorder (PTSD) [1]: demonstrated efficacy | social anxiety symptoms [2]: rapid and durable improvement in social anxiety symptoms | enantiomer with higher Cmax [3]: Higher R-enantiomer Cmax | Cmax (maximum MDMA concentration) ([4]; intraperitoneal): 210 ng/mL | Cmax (maximum MDMA concentration) ([4]; oral): 46 ng/mL | Cmax (maximum MDMA concentration) ([4]; subcutaneous): 196 ng/mL | Cmax ([4]; intraperitoneal): 2257 ng/mL | Cmax ([4]; oral): 966 ng/mL | Cmax ([4]; subcutaneous): 1130 ng/mL

CN[C@@H](C)Cc1ccc2c(c1)OCO2 [S(+)-MDMA, (2S)-1-(1,3-benzodioxol-5-yl)-N-methylpropan-2-amine]
sociability (time spent with the stranger mouse vs dummy) [5]: did not alter sociability

Source: patent publication US12053452B2 (priority 2021, dated 2024)
